Experimental data taken from PMC6753678, “Fueling Open Innovation for Malaria Transmission-Blocking Drugs: Hundreds of Molecules Targeting Early Parasite Mosquito Stages” (Frontiers in Microbiology, 2019).
pIC50: −log10 of the molar value.

Tested on: P. berghei ookinete development
Details: for % inhibition, Replicate A / % inhibition, Replicate B: primary screen at 1 μM

Cc1nc(SCC(=O)N2CCCC2=O)c2c(C)c(C)sc2n1 [TCMDC-123558]
% inhibition, Replicate A: 50.04% | % inhibition, Replicate B: 22.22%

CC(C)Oc1ccc2c(c1)OC(c1ccccc1)(C(F)(F)F)NC2=O (stereo not drawn) [TCMDC-123633]
% inhibition, Replicate A: 24.49% | % inhibition, Replicate B: 54.58%

O=C(Nc1ccccc1O)c1ccc(S(=O)(=O)c2ccc(Cl)cc2)cc1 [TCMDC-123689]
% inhibition, Replicate A: 23.88% | % inhibition, Replicate B: 50.54%

CCCC(=O)Nc1ccc(Cl)c(NC(=O)COc2cc(C)ccc2C(C)C)c1 [TCMDC-123706]
% inhibition, Replicate A: 60.12% | % inhibition, Replicate B: 20.94%

Cl.O=C(CNC1CCCCC1)c1ccc(O)c(O)c1 [TCMDC-123961]
% inhibition, Replicate A: 31.52% | % inhibition, Replicate B: 68.95%

CC1Cc2ccccc2N1S(=O)(=O)c1cc(OCC(F)(F)F)ccc1OCC(F)(F)F (stereo not drawn) [TCMDC-124044]
% inhibition, Replicate A: 52.34% | % inhibition, Replicate B: 21.81%

CCOC(=O)c1cn(CC)c2cc(N3CCCCCC3)c(F)cc2c1=O [TCMDC-124160]
% inhibition, Replicate A: 101.92% | % inhibition, Replicate B: 113.32%

c1ccc(-c2csc(Nc3nc4cc5c(cc4s3)OCO5)n2)nc1 [TCMDC-124550]
% inhibition, Replicate A: 83.78% | % inhibition, Replicate B: 59.07%

Cc1ccc(CN2CCC(C(=O)Nc3ccc(-c4cc5ccccc5[nH]4)cc3)CC2)o1 [TCMDC-124634]
% inhibition, Replicate A: 35.55% | % inhibition, Replicate B: 65.49%

COc1cc(OC)cc(C(=O)Nc2ccc(Nc3nc(C)cc(N(C)C)n3)cc2)c1 [TCMDC-124726]
% inhibition, Replicate A: 52.96% | % inhibition, Replicate B: 25.99%

Cc1ccc(-c2noc(COc3ccccc3C(=O)NC3CCCC3)n2)cc1 [TCMDC-124748]
% inhibition, Replicate A: 70.37% | % inhibition, Replicate B: 89.43%

Cc1cc(C(=O)NC2CCN(CC3(c4ccc(Cl)cc4)CCC3)CC2)on1 [TCMDC-124833]
% inhibition, Replicate A: 70.28% | % inhibition, Replicate B: 68.63%

O=C(CSc1nn(-c2ccccc2)c(=S)s1)c1c[nH]c2ccccc12 [TCMDC-124894]
% inhibition, Replicate A: 61.81% | % inhibition, Replicate B: 32.04%

COc1cc(CN2CCN(c3ccnc(N(C)C4CCN(C)CC4)n3)CC2)cc(Cl)c1O [TCMDC-125096]
% inhibition, Replicate A: 51.09% | % inhibition, Replicate B: 24.20%

CCN(CC)CCCC(C)Nc1c2ccc(Cl)cc2nc2ccc(OC)cc12.Cl.O (stereo not drawn) [TCMDC-125480]
% inhibition, Replicate A: 33.29% | % inhibition, Replicate B: 58.69%

Br.CCc1ccccc1OCCCON1C(=N)N=C(N)NC1(C)C [TCMDC-131305]
% inhibition, Replicate A: 58.24% | % inhibition, Replicate B: 46.89%

CCSc1ccccc1COc1c(C)nc(N)nc1N.Cl [TCMDC-131359]
% inhibition, Replicate A: 61.82% | % inhibition, Replicate B: 19.87%

N=C1NC(=N)N(OCCCCCCON2C(=N)NC(=N)NC2C=Cc2ccccc2)C(C=Cc2ccccc2)N1 (stereo not drawn) [TCMDC-131602]
% inhibition, Replicate A: 52.81% | % inhibition, Replicate B: 32.33%

Br.CC1(C)N=C(N)N=C(N)N1OCCc1ccc2ccccc2c1 [TCMDC-131755]
% inhibition, Replicate A: 66.00% | % inhibition, Replicate B: 52.02%

CC(C)c1cccc(C(C)C)c1NC(=O)NNC(=O)c1ccc(CCN2CCC(c3nc(COCC(F)(F)F)c(-c4ccc(F)cc4)o3)CC2)cc1 [TCMDC-131908]
% inhibition, Replicate A: 61.66% | % inhibition, Replicate B: 23.60%

CN1CCC(C(=O)Nc2ccc(-c3cccc(-c4nc5cc(F)ccc5[nH]4)c3)cc2)CC1 [TCMDC-132180]
% inhibition, Replicate A: 7.14% | % inhibition, Replicate B: 53.61%

CS(=O)(=O)NCCCNCc1cccc(-c2ccc(-c3nc4ccccc4[nH]3)s2)c1.O=C(O)C(F)(F)F [TCMDC-133088]
% inhibition, Replicate A: 41.67% | % inhibition, Replicate B: 56.04%

Cc1cccc2nc(-c3ccc(-c4ccc(NC(=O)NCc5cccc(F)c5)cc4)cc3)[nH]c12 [TCMDC-133294]
% inhibition, Replicate A: 56.07% | % inhibition, Replicate B: 54.12%

COc1ccc(Nc2nc(C)cc(NC3CCCC3)n2)cc1 [TCMDC-133465]
% inhibition, Replicate A: 51.72% | % inhibition, Replicate B: 31.38%

Cc1cc(Nc2cccc(C#N)c2)nc(Nc2ccccc2C)n1 [TCMDC-133471]
% inhibition, Replicate A: 56.49% | % inhibition, Replicate B: 36.05%

O=C(Nc1cccc(C(F)(F)F)c1)c1cccc(S(=O)(=O)NCC2CCCN2CC2CCCCC2)c1.O=C(O)C(F)(F)F (stereo not drawn) [TCMDC-133687]
% inhibition, Replicate A: 11.95% | % inhibition, Replicate B: 57.11%

Cc1cccc2nc(-c3ccc(-c4cccc(CN5CCCC(N)C5)c4)s3)[nH]c12.O=C(O)C(F)(F)F (stereo not drawn) [TCMDC-133874]
% inhibition, Replicate A: 50.71% | % inhibition, Replicate B: 12.43%

COc1ccc(-c2cc(C(=O)Nc3ccc4[nH]c(-c5ccccc5)nc4c3)[nH]n2)cc1.O=C(O)C(F)(F)F [TCMDC-134399]
% inhibition, Replicate A: 46.43% | % inhibition, Replicate B: 56.04%

COc1ccccc1-c1cccc(CNC2CCN(CC3Cn4c(=O)ccc5ccc(F)c3c54)CC2)c1.O=C(O)C(F)(F)F (stereo not drawn) [TCMDC-134411]
% inhibition, Replicate A: 72.27% | % inhibition, Replicate B: 57.51%

COc1ccc2nccc(N3CCC(NCCNCc4ccc5c(n4)NC(=O)CS5)C3)c2n1.Cl (stereo not drawn) [TCMDC-134649]
% inhibition, Replicate A: 18.73% | % inhibition, Replicate B: 51.52%

O=C(NCc1cccs1)[C@H](Cc1ccccc1)Nc1ccnc(NCC2CCCCC2)n1.O=C(O)C(F)(F)F [TCMDC-134708]
% inhibition, Replicate A: 21.89% | % inhibition, Replicate B: 53.00%

COc1cc(OC)cc(-c2nn(-c3ccc([N+](=O)[O-])cc3C#N)c(=S)n2CC2CCCO2)c1 (stereo not drawn) [TCMDC-134716]
% inhibition, Replicate A: 44.85% | % inhibition, Replicate B: 53.94% | pIC50 (read-out: Pb Ookinete development assay IC50, dose response confirmation): 5.26

N#Cc1cc([N+](=O)[O-])ccc1-n1nc(-c2cccc(Cl)c2)n(Cc2ccco2)c1=S [TCMDC-134717]
% inhibition, Replicate A: 64.43% | % inhibition, Replicate B: 77.59%

COc1ccccc1CCNc1nc(C)cc(N[C@@H](Cc2ccccc2)C(=O)Nc2ccccc2)n1.O=C(O)C(F)(F)F [TCMDC-134804]
% inhibition, Replicate A: 57.50% | % inhibition, Replicate B: 38.80%

CN(Cc1ccccc1)C1CCN(c2cc(NC(=O)c3cccc(F)c3)ccn2)CC1.O=C(O)C(F)(F)F [TCMDC-135000]
% inhibition, Replicate A: 52.34% | % inhibition, Replicate B: 57.11%

Nc1ncnc2cc(-c3cccc(S(N)(=O)=O)c3)sc12 [TCMDC-135294]
% inhibition, Replicate A: 103.63% | % inhibition, Replicate B: 97.06%

Cc1[nH]c(C)c(-c2cccc(-c3ccc(OC(F)(F)F)cc3)c2)c(=O)c1Br [TCMDC-135303]
% inhibition, Replicate A: 52.85% | % inhibition, Replicate B: 65.81%

COc1ccc2nc(-c3cc(-c4ccc(NC(=O)CN5CCOCC5)cc4)cnc3N)[nH]c2c1 [TCMDC-135373]
% inhibition, Replicate A: 111.93% | % inhibition, Replicate B: 79.71%

COc1cc(C(=O)N2CCOC(CCN3CCC(c4ccc(Cl)cc4)CC3)(c3ccc(Cl)c(Cl)c3)C2)cc(OC)c1OC (stereo not drawn) [TCMDC-135566]
% inhibition, Replicate A: 63.32% | % inhibition, Replicate B: 35.61%

CS(=O)(=O)Cc1ccc(Nc2nccc(-c3c(-c4cccc(NC(=O)c5c(F)cccc5F)c4)nn4ccccc34)n2)cc1 [TCMDC-135669]
% inhibition, Replicate A: 21.89% | % inhibition, Replicate B: 53.61%
